The values that follow are results of earlier work, collected in patent US20210322464A1 (priority 2020, published 2021).

For the data set the following is noted: 1000 μg per day, constant syringe pump infusion for 14 days; cited from earlier work.

Structures are written as SMILES.

Regarding `O=[Se](O)O` [sodium selenite], the adverse effects entry was “No adverse effects”.
